# Test results reported in the supplement of paper PMC10307832.
# Tests used:
# Experiment in all cases: relative viability (nuclei count vs DMSO), 5 days (fraction); higher = more cells survive
# [1] = compound: CC1CC(=O)N(C2=CN=C(N=C2N1C3CCCC3)NC4=C(C=C(C=C4)C(=O)NC5CCN(CC5)C)OC)C [NPK76-II-72-1] + Nc1ncn([C@H]2C[C@H](O)[C@@H](CO)O2)c(=O)n1 [Decitabine] (partner 2 µM)
# Method in brief: (§1)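 Values are medians from duplicate plates. Each reflects relative viability, defined as the nuclei count of treated wells over that of vehicle wells. Lung cancer cell lines in 1536-well plates were pin-tool dosed one day after seeding with one drug alone or with a fixed anchor-drug dose plus five library-drug doses (not always all listed) in √10 steps, then fixed, stained and imaged at 4× after 5 days.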
# [2] = compound: CC1CC(=O)N(C2=CN=C(N=C2N1C3CCCC3)NC4=C(C=C(C=C4)C(=O)NC5CCN(CC5)C)OC)C [NPK76-II-72-1] + O=C(CCCCCCC(=O)Nc1ccccc1)NO [Vorinostat] (partner 1 µM)
# Method in brief: as §1
# BI-2536 + Lapatinib = compound: CC[C@@H]1C(=O)N(C)c2cnc(Nc3ccc(C(=O)NC4CCN(C)CC4)cc3OC)nc2N1C1CCCC1 [BI-2536] + CS(=O)(=O)CCNCc1ccc(-c2ccc3ncnc(Nc4ccc(OCc5cccc(F)c5)c(Cl)c4)c3c2)o1 [Lapatinib] (partner 2 µM)
# Method in brief: as §1
# BI-2536 + Alpelisib = compound: CC[C@@H]1C(=O)N(C)c2cnc(Nc3ccc(C(=O)NC4CCN(C)CC4)cc3OC)nc2N1C1CCCC1 [BI-2536] + Cc1nc(NC(=O)N2CCC[C@H]2C(N)=O)sc1-c1ccnc(C(C)(C)C(F)(F)F)c1 [Alpelisib] (partner 2 µM)
# Method in brief: as §1
Cell Line,relative viability ([1]; first compound 0.01 µM),relative viability ([1]; first compound 0.03162 µM),relative viability ([1]; first compound 0.1 µM),relative viability ([1]; first compound 0.3162 µM),relative viability ([1]; first compound 1 µM),relative viability ([2]; first compound 0.01 µM),relative viability ([2]; first compound 0.03162 µM),relative viability ([2]; first compound 0.1 µM),relative viability ([2]; first compound 0.3162 µM),relative viability ([2]; first compound 1 µM),relative viability (BI-2536 + Lapatinib; first compound 0.01 µM),relative viability (BI-2536 + Lapatinib; first compound 0.03162 µM),relative viability (BI-2536 + Lapatinib; first compound 0.1 µM),relative viability (BI-2536 + Lapatinib; first compound 0.3162 µM),relative viability (BI-2536 + Lapatinib; first compound 1 µM),relative viability (BI-2536 + Alpelisib; first compound 0.01 µM),relative viability (BI-2536 + Alpelisib; first compound 0.03162 µM),relative viability (BI-2536 + Alpelisib; first compound 0.1 µM),relative viability (BI-2536 + Alpelisib; first compound 0.3162 µM),relative viability (BI-2536 + Alpelisib; first compound 1 µM)
NCI-H1651,0.611,0.645,0.606,0.589,0.604,0.57,0.565,0.634,0.557,0.607,0.754,0.8,0.118,0.0889,0.0915,0.93,0.828,0.558,0.0805,0.0804
NCI-H1666,0.809,0.755,0.705,0.713,0.733,1.04,0.996,0.983,0.955,1.17,0.779,0.582,0.29,0.231,0.262,0.988,0.737,0.592,0.287,0.266
NCI-H1734,0.49,0.456,0.479,0.479,0.525,0.857,0.845,0.779,0.764,0.951,1.04,0.81,0.427,0.205,0.206,0.634,0.777,0.51,0.192,0.222
NCI-H1755,0.738,0.712,0.75,0.735,0.694,0.89,0.76,0.928,0.82,0.782,0.968,0.982,0.498,0.204,0.272,0.989,0.903,0.711,0.284,0.296
NCI-H1793,,0.542,0.547,0.409,0.575,,0.693,0.809,0.61,0.825,0.581,0.507,0.256,,0.193,0.785,0.639,0.469,0.204,0.165
NCI-H1915,0.256,0.257,0.27,0.261,0.278,0.504,0.537,0.483,0.442,0.574,0.882,0.965,0.752,0.62,0.0794,1.05,0.977,0.812,0.129,0.0999
NCI-H1944,0.431,0.463,0.408,0.408,0.478,0.49,0.583,0.508,0.485,0.646,0.848,0.832,0.754,0.678,0.161,0.895,0.892,0.679,0.192,0.164
NCI-H1975,0.351,0.375,0.398,0.364,0.391,0.676,0.736,0.662,0.694,0.712,0.853,0.622,0.421,0.153,0.175,0.654,0.479,0.351,0.148,0.173
NCI-H1993,0.604,0.624,0.61,0.474,0.678,0.486,0.777,0.784,0.725,0.728,0.81,0.828,0.533,0.566,0.555,0.68,0.618,0.556,0.532,0.541
NCI-H2009,0.422,0.42,0.38,0.364,0.365,0.696,0.713,0.705,0.728,0.77,0.869,0.64,0.101,0.158,0.0981,1.15,1.01,0.581,0.236,0.191
NCI-H2023,0.203,0.218,0.225,0.215,0.227,0.504,0.655,0.69,0.563,0.614,0.963,0.613,0.0796,0.0761,0.142,0.57,0.577,0.309,0.0843,0.0719
NCI-H2085,0.543,0.519,0.517,0.472,0.611,0.731,0.808,0.794,0.821,0.842,0.781,0.71,0.427,0.252,0.324,1.01,0.863,0.601,0.234,0.307
NCI-H2087,0.226,0.33,0.3,0.217,0.36,0.569,0.854,0.572,0.485,0.814,1.38,0.992,0.594,0.138,0.146,1.11,1.18,1.03,0.15,0.132
NCI-H2126,0.57,0.554,0.569,0.516,0.538,0.761,0.798,0.846,0.713,0.828,0.782,0.689,0.725,0.619,0.267,0.739,0.731,0.62,0.269,0.237
NCI-H2170,0.442,0.447,0.455,0.42,0.511,0.731,0.855,0.823,0.38,0.941,0.291,0.273,0.205,0.199,0.171,0.767,0.871,0.402,0.195,0.223
NCI-H2347,0.607,0.578,0.614,0.562,0.635,0.744,0.588,0.656,0.641,0.603,0.786,0.986,0.769,0.413,0.621,1.03,0.923,0.89,0.448,0.497
